Measured values as given in patent publication US8178089B2, “Neuronal progenitors from feeder-free human embryonic stem cell culture” (The University of Georgia Research Foundation, Inc, priority 2004, dated 2012).

Tests used:
[1] = tested on: voltage-gated sodium channels; assay: Intracellular calcium measurement (Fluo-3AM, FLIPR) in human neuroprogenitor cells; assay type: cell-based; settings: 30 μM veratridine, 96-well plates
Method: In this experiment, human neuroprogenitor cells were seeded in 96-well plates and incubated with dye loading medium containing 2 μM Fluo-3AM and 0.04% pluronic acid in Locke's buffer. After 45 minutes of incubation, the neuroprogenitor cells were gently washed three times in fresh Locke's buffer. Following the final wash, 150 μl of Locke's buffer was added to each well and the plate was transferred to the FLIPR® incubation chamber (Molecular Devices). […] These cells can therefore be used to determine the effect of an antagonist or agonist on calcium uptake or whether an agent is a likely antagonist or agonist of calcium uptake.

NEP cells [2] = assay: Plating efficiency of subcultured NEP cells (day 1); assay type: cell-based, human; settings: for plating efficiency versus control: NEP after 6 months in LIF supplemented culture; for effect on plating efficiency / plating efficiency: early NEP cells (1 mo)
Method: (§1) Effect of LIF and bFGF on subcultured NEP cells. Two groups of cultured NEP cells, one less than 1 month (<1 mo) and the other approximately 6 months (6 mo) in NB27 (described in previous section), were dissociated by 0.05% trypsin to obtain a single-cell suspension, and 50,000 cells/cm^2 were plated in one of the subculture media on polyornithine and laminin-coated dishes. Two concentrations of two growth factors (LIF; 0 or 10 ng/ml and bFGF; 0 or 20 ng/ml) in NB27, were applied to cells. Cells were harvested from each group and nuclei were counted by flow cytometry on days 1 and 14. Plating efficiency rate was calculated as the ratio of cells harvested to cells plated on day 1. Proliferation was measured on day 14. For each replicate, counted nuclei from the four treatment groups were added to obtain an overall total. The total cell number within each group was then divided by the overall total cell number and expressed as a percent.

NEP cells [3] = assay: Proliferation of subcultured NEP cells (nuclei count by flow cytometry, day 14); assay type: cell-based, human; settings: for proliferation rate: long term cultured NEP cells (6 mo)
Method: as §1

OLIG2 expression = assay: OLIG2 gene expression by real time RT-PCR in NEP; assay type: cell-based; settings: human NEP, FIG. 2A
Source text: The motor neuron progenitor gene, OLIG2, is expressed early in motor neuron induction. Novitch, et al., Neuron, 31(5), 773-89 (2001). […] Subsequently, we examined expression of the motor neuron gene HLBX9 to investigate the effect of Shh and RA on motor neuron differentiation. Based on the OLIG2 results, bFGF was included at the time of RA or RA plus Shh exposure. The combination of RA and bFGF produced a 2·20 fold increased in HLBX9 expression level, and combining bFGF, Shh and RA increased HLBX9 expression 8·49 fold higher than bFGF alone in human NEP (FIG. 2B).

Row | Compound | elevation of intracellular [Ca2+] [1] | plating efficiency versus control (NEP cells [2]) | effect on plating efficiency (NEP cells [2]) | plating efficiency (NEP cells [2]) | effect on proliferation of NEP cells (NEP cells [3]; early NEP cells (1 mo), in presence or absence of bFGF) | proliferation rate (NEP cells [3]) | OLIG2 expression change (OLIG2 expression) | cell proliferation (group cell number as percent of overall total) (NEP cells [3]; early NEP cells (1 mo), day 14, bFGF 20 ng/ml, control 8.9%)
1 | COc1ccc(C(=O)O[C@H]2CC[C@@]3(C)[C@@H]4CC[C@H]5[C@]6(O)C[C@H](O)[C@@]7(O)[C@@H](CN8C[C@@H](C)CC[C@H]8[C@@]7(C)O)[C@]6(O)C[C@@]53O[C@]24O)cc1OC [veratridine] | ~145 % of control | – | – | – | – | – | – | –
2 | LIF: Leukemia Inhibitory Factor, growth factor | – | higher plating efficiency than the control | no effect | about 50% | no effect | increased proliferation rate | – | –
3 | bFGF: basic fibroblast growth factor, growth factor | – | higher plating efficiency than the control | no effect | about 50% | – | increased proliferation rate | significantly increased | 38.5%
